Measurements published in patent US10221178B2, “Purine inhibitors of human phosphatidylinositol 3-kinase delta” (MERCK SHARP & DOHME CORP., priority 2015, dated 2019).

Assays:
[1] = target: PI3Kdelta (Homo sapiens (Human), UniProt O00329); experiment: HTRF PI3K biochemical assay, delta isoform; settings: 0.3 nM enzyme, 100 uM ATP, 5 uM PIP2, form screened: Neutral
Excerpt: (§1) HTRF PI3K Biochemical Assay to Measure Intrinsic Potency of Compound Inhibitors
(§2) The PI3-Kinase biochemical assays were developed to measure the intrinsic potency and compound dependent inhibition of the alpha, beta, delta, and gamma PI3K isoform enzymes.
(§3) This assay was developed and further optimized from a kit produced by Upstate (Millipore catalog #33-047) and has been configured for HTS (high throughput screening) and SAR screening. Briefly, this procedure exploits the exquisite specificity and high affinity binding of enzyme reaction substrate phosphatidyl(3,4,5)triphosphate (PIP3) to the GRP1 pleckstrin homology (PH) domain to generate the signal. In the absence of PIP3, an HTRF (Homogeneous Time-Resolved Fluorescence energy transfer) complex is formed consisting of europium (Eu)-labeled anti-GST, GSTtagged GRP1-PH domain, biotin-PIP3 and streptavidin conjugated APC. The native PIP3 produced by PI3-Kinase activity disrupts in a competitive manner the biotin-PIP3 from the PH domain, resulting in the loss of energy transfer (HTRF complex) and a decrease in the signal. The format of this assay is the same for all 4 isoforms of PI3K; the differences lie in the concentration of enzyme used to achieve robust assay window. The alpha, beta, and delta assays are run at 0.5, 1, and 0.3 nM enzymes and the gamma assay is run at 5 nM enzyme. The ATP concentration is 100 uM in the alpha, beta, and delta assays and 50 uM ATP in the gamma assay. All reactions are run at 5 uM PIP2.
(§4) Compounds are serially diluted (3-fold in 100% DMSO) across a 384-well polypropylene source plated from column 3 to column 12 and column 13 to column 22, to yield 10 concentration dose response for each test compound. Columns 1, 2, 23 and 24 contain either only DMSO or pharmacological known control inhibitor. Once titrations are made, 2.5 nL of the compounds on 384 well plates are reformatted and transferred by acoustic dispense in quadruplicates to a 1536 assay plate (Greiner) to assay across all four PI3K isoform enzymes.
(§5) The PI3-Kinase biochemical assay was optimized using the HTRF kit provided by Upstate (Millipore). The assay kit contains six reagents: 1) 4× Reaction Buffer; 2) native PIP2 (substrate); 3) Stop (EDTA); 4) Detection Mix A (Streptavidin-APC); 5) Detection Mix B (Eu-labeled Anti-GST plus GST-tagged PH-domain); 6) Detection Mix C. In addition, the following items were obtained or purchased; PI3Kinase (alpha 14-602, beta 14-603, gamma 14-558 and delta 14-604 from Upstate; Millipore), dithiothreitol (Sigma, D-5545), Adenosine-5′ triphosphate (InVitrogen, Cat#AS001A), native PIP3 (PI(3,4,5)P3, diC8, H^+, CELLSIGNALS, INC. Cat #907) DMSO (Sigma, 472301).
(§6) PI3Kinase Reaction Buffer is prepared by dilution the stock 1:4 with de-ionized water. DTT, PIP2 and Biotin-PIP3 were added to 1536 assay plate at a final concentration of 5 mM, […] on the day of use. Enzyme addition and compound pre-incubation are initiated by the addition of 1.25 ul of PI3K (at twice its final concentration) in the 1× reaction buffer to all wells using a BioRaptor. Plates are incubated at RT for 15 minutes. Reactions are initiated by addition of 1.25 ul of 2× substrate solution (PIP2 and ATP in 1× reaction buffer) using BioRaptor. Plates are incubated in humidified chamber at RT for one hour. Reactions are quenched by addition of 0.625 uL of stop solution to all wells using the BioRaptor. The quenched reactions are then processed to detect product formation by adding 0.625 uL of Detection Solution to all wells using the BioRaptor (Detection mix C, Detection Mix A, and Detection Mix B combined together in an 18:1:1 ratio prepared 2 hours prior to use). Following a one hour incubation in the dark, the HTRF signal is measured on the Envision plate reader set for 330 nm excitation and dual emission detection at 620 nM (Eu) and 665 nM (APC).

[2] = target: PI3Kalpha (Homo sapiens (Human), UniProt P42336); experiment: HTRF PI3K biochemical assay, alpha isoform (selectivity versus PI3Kalpha); settings: relative ratio (PI3K-alpha IC50 value/PI3K-delta IC50 value); form screened: Neutral
Sequence of PI3Kalpha (P42336 whole entry, canonical isoform): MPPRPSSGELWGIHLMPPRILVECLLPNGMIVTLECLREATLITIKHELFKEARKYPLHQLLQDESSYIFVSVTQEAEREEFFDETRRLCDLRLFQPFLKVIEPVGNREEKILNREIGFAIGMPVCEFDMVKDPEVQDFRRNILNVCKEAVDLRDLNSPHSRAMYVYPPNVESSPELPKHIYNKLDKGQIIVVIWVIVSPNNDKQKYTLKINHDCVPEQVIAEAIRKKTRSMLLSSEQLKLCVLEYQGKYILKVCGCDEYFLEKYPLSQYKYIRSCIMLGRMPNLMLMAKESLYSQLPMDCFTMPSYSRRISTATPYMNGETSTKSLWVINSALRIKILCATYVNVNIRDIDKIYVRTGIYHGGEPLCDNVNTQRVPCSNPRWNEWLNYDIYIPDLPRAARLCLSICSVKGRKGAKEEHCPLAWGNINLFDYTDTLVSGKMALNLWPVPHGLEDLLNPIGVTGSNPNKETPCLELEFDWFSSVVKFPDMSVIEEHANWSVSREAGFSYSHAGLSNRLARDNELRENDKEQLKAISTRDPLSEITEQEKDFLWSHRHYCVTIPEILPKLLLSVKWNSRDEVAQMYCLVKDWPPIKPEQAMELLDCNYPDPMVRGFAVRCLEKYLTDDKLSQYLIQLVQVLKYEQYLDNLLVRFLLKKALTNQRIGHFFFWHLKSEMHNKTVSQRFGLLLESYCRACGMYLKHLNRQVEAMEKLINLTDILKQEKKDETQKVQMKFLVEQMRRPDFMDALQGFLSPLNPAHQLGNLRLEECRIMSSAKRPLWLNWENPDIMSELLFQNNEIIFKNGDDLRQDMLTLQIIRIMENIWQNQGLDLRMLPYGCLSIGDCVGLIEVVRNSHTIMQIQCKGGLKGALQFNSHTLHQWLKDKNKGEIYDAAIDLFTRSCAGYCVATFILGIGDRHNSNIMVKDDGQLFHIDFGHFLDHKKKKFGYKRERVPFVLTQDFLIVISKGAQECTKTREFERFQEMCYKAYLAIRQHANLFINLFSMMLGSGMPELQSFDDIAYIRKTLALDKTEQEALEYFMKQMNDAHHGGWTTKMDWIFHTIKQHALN
Sequence of PI3Kalpha (P27986 whole entry partner, canonical isoform): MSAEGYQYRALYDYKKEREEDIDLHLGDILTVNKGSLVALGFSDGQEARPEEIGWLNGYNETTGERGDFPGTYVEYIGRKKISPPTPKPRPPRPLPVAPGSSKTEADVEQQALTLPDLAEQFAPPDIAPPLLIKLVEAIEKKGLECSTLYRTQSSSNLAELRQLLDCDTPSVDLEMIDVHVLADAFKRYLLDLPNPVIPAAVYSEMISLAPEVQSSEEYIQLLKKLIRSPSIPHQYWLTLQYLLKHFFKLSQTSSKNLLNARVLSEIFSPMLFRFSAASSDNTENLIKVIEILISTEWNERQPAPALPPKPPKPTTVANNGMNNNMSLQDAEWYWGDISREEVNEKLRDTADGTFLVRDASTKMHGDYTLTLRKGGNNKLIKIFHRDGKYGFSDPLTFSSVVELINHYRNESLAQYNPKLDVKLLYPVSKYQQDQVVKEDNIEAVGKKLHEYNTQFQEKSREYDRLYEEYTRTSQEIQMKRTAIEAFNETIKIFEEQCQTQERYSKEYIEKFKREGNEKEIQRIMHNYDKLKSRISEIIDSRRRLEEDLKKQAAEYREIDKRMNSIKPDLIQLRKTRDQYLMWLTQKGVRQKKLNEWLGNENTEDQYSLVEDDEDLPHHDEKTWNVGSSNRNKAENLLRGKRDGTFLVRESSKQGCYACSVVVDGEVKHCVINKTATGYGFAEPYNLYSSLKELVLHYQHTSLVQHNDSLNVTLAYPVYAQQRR
Excerpt: as §1, §2, §3, §4, §5
as §6, with “[…]. […]” for “(APC).”

Sequence of PI3Kdelta (O00329 whole entry, canonical isoform): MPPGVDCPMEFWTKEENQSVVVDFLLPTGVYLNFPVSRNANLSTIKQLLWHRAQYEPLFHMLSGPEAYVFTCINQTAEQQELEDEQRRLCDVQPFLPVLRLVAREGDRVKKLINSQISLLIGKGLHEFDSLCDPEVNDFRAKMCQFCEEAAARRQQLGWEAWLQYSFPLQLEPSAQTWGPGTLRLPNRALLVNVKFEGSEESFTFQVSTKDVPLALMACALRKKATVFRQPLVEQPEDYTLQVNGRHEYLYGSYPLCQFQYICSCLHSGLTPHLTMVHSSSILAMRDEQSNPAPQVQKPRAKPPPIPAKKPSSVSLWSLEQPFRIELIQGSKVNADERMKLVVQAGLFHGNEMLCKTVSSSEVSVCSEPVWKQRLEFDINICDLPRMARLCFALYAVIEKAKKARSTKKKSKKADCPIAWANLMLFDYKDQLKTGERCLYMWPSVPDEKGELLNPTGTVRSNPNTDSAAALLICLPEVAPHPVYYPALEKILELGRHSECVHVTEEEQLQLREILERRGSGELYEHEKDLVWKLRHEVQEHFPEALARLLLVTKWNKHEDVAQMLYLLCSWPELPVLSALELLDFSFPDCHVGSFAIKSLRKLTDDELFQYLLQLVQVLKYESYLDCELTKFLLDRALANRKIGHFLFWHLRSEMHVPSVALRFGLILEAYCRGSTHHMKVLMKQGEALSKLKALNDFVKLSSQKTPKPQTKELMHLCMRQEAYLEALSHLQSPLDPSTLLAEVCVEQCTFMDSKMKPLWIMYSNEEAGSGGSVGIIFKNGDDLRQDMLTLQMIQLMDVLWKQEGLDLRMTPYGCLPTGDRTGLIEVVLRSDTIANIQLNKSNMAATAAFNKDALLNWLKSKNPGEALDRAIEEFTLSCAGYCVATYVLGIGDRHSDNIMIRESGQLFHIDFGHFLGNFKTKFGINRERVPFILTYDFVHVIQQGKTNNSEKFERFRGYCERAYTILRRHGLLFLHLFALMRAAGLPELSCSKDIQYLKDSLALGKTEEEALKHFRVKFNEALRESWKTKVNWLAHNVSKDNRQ
Sequence of PI3Kdelta (P27986 whole entry partner, canonical isoform): as the sequence (P27986 whole entry partner, canonical isoform) above

SMILES | IC50 [1] [µM] | Selectivity versus PI3Kalpha [2]
CC[C@H](Nc1ncnc2c1nc(-c1cnc(C)nc1)n2CC)C(=O)N1CCOCC1CO (mixture of isomers) [Compound 2-37, {4-[(2S)-2-{[9-ethyl-8-(2-methylpyrimidin-5-yl)-9H-purin-6-yl]amino}butanoyl]-(R and S)-morpholin-3-yl}methanol] | 0.064 | >10
CC[C@H](Nc1ncnc2c1nc(-c1cnc(C)nc1)n2CC)C(=O)N1CC2CCS(=O)(=O)C2C1 (mixture of isomers) [Compound 2-14, N-{(1S)-1-[((3a(R and S), 6a(R and S)-1,1-dioxidohexahydro-5H-thieno[2,3-c]pyrrol-5-yl)carbonyl]propyl}-9-ethyl-8-(2-methylpyrimidin-5-yl)-9H-purin-6-amine] | 0.007 | >10
CC[C@H](Nc1ncnc2c1nc(-c1cnc(C)nc1)n2CC)C(=O)N1CC[C@H](F)C1 [Compound 2-15, 9-ethyl-N-[(1S)-1-{[(3S)-3-fluoropyrrolidin-1-yl]carbonyl}propyl]-8-(2-methylpyrimidin-5-yl)-9H-purin-6-amine] | 0.037 | >10
CCn1c(-c2cnc(C)nc2)nc2c(N[C@H](C(=O)N3C[C@@H](C)O[C@@H](C)C3)[C@@H](C)OC)ccnc21 [Compound 3-3, N-[(1S,2R)-1-{[(cis)-2,6-dimethylmorpholin-4-yl]carbonyl}-2-methoxypropyl]-3-ethyl-2-(2-methylpyrimidin-5-yl)-3H-imidazo[4,5-b]pyridin-7-amine] | 0.0086 | >10
CCn1ncc(-c2nc3c(N[C@@H](Cc4ccccc4)C(=O)N4CCOCC4)ncnc3n2C)c1C [Compound 2-2, N-[(1S)-1-benzyl-2-morpholin-4-yl-2-oxoethyl]-8-(1-ethyl-5-methyl-1H-pyrazol-4-yl)-9-methyl-9H-purin-6-amine] | 0.059 | >10
CC[C@H](Nc1ncnc2c1nc(-c1cnc(C)nc1)n2CC)C(=O)N1C[C@@H](C)N(C)[C@@H](C)C1 [Compound 4-3, 9-ethyl-8-(2-methylpyrimidin-5-yl)-N-[(1S)-1-{[cis-3,4,5-trimethylpiperazin-1-yl]carbonyl}propyl]-9H-purin-6-amine] | 0.0055 | >10
CCn1c(-c2cnc(C)nc2)nc2c(N[C@@H](C)CC(=O)N3C[C@@H](C)O[C@@H](C)C3)ncnc21 [Compound 2-53, N-{(1S)-3-[(cis)-2,6-dimethylmorpholin-4-yl]-1-methyl-3-oxopropyl}-9-ethyl-8-(2-methylpyrimidin-5-yl)-9H-purin-6-amine] | 0.037 | >10
CC[C@H](Nc1ncnc2c1nc(-c1cnc(C)nc1)n2CC)C(=O)N1CCC(C#N)CC1 [Compound 2-13, 1-[(2S)-2-{[9-ethyl-8-(2-methylpyrimidin-5-yl)-9H-purin-6-yl]amino}butanoyl]piperidine-4-carbonitrile] | 0.026 | >10
CC[C@H](Nc1ncnc2c1nc(-c1cnc(C)nc1)n2CC)C(=O)N1CCC(OCCOC)CC1 [Compound 2-10, 9-ethyl-N-[(1S)-1-{[4-(2-methoxyethoxy)piperidin-1-yl]carbonyl}propyl]-8-(2-methylpyrimidin-5-yl)-9H-purin-6-amine] | 0.062 | >10
CC[C@H](Nc1ncnc2c1nc(-c1cnc(C)nc1)n2CC)C(=O)N1CC(=O)NC(C)(C)C1 [Compound 4-7, 4-[(2S)-2-{[9-ethyl-8-(2-methylpyrimidin-5-yl)-9H-purin-6-yl]amino}butanoyl]-6,6-dimethylpiperazin-2-one] | 0.019 | >10
CC[C@H](Nc1ncnc2c1nc(-c1cnc(C)nc1)n2CC)C(=O)N1CCOC[C@@H]1C [Compound 2-26, 9-ethyl-N-[(1S)-1-{[(3S)-3-methylmorpholin-4-yl]carbonyl}propyl]-8-(2-methylpyrimidin-5-yl)-9H-purin-6-amine] | 0.032 | >10
CCn1c(-c2cnc(C)nc2)nc2c(N[C@H](C(=O)N3C[C@@H](C)O[C@@H](C)C3)C(C)(C)O)ncnc21 [Compound 2-50, (3S)-4-[(cis)-2,6-dimethylmorpholin-4-yl]-3-{[9-ethyl-8-(2-methylpyrimidin-5-yl)-9H-purin-6-yl]amino}-2-methyl-4-oxobutan-2-ol] | 0.0087 | >10
CC[C@H](Nc1ncnc2c1nc(-c1cnc(C)nc1)n2CC)C(=O)N1C[C@@H](C)N(C(C)=O)[C@@H](C)C1 [Compound 4-2, N-[(1S)-1-{[cis-4-acetyl-3,5-dimethylpiperazin-1-yl]carbonyl}propyl]-9-ethyl-8-(2-methylpyrimidin-5-yl)-9H-purin-6-amine] | 0.021 | >10
CC[C@H](Nc1ncnc2c1nc(-c1cnc(C)nc1)n2CC)C(=O)N1CCOCC1C(C)C (stereo partly drawn) [Compound 2-32, 9-ethyl-N-[(1S)-1-{[3-(1-methylethyl)morpholin-4-yl]carbonyl}propyl]-8-(2-methylpyrimidin-5-yl)-9H-purin-6-amine] | 0.083 | >10
CC[C@H](Nc1ncnc2c1nc(-c1cnc(C)nc1)n2CC)C(=O)N1CC2(CCCC2)C1 [Compound 2-21, N-[(1S)-1-(2-azaspiro[3.4]oct-2-ylcarbonyl)propyl]-9-ethyl-8-(2-methylpyrimidin-5-yl)-9H-purin-6-amine] | 0.014 | >10
CC[C@H](Nc1ncnc2c1nc(-c1cnc(C)nc1)n2CC)C(=O)N1CCCC(C)C1 (mixture of isomers) [Compound 2-23, 9-ethyl-N-{(1S)-1-[((R and S)-3-methylpiperidin-1-yl)carbonyl]propyl}-8-(2-methylpyrimidin-5-yl)-9H-purin-6-amine] | 0.0093 | >10
CCn1c(-c2cnc(C)nc2)nc2c(N[C@@H](COC)C(=O)N3C[C@@H](C)O[C@@H](C)C3)ncnc21 [Compound 2-46, N-[(1S)-2-[(cis)-2,6-dimethylmorpholin-4-yl]-1-(methoxymethyl)-2-oxoethyl]-9-ethyl-8-(2-methylpyrimidin-5-yl)-9H-purin-6-amine] | 0.027 | >10
CC[C@H](Nc1ncnc2c1nc(-c1ccc(C(F)(F)F)nc1)n2CC)C(=O)N1C[C@@H](C)O[C@@H](C)C1 [Compound 2-7, N-[(1S)-1-{[(cis)-2,6-dimethylmorpholin-4-yl]carbonyl}propyl]-9-ethyl-8-[6-(trifluoromethyl)pyridin-3-yl]-9H-purin-6-amine] | 0.0028 | >10
